From paper PMC8484168 (Cancer Chemotherapy and Pharmacology, 2021)
pIC50: −log10 of the molar value.

Tests used:
[1] = Rucaparib steady-state trough plasma concentration (Cmin); type: in vivo, human; settings: rucaparib 600 mg BID from day 5
From the text: This was a 2-part, phase 1, open-label, 2-arm DDI study in patients with advanced solid tumors. In Part 1 of the study, patients were screened for eligibility from day − 28 to − 2 and visited the study site from day − 1 to 23 (Fig. 1). […] To check steady-state plasma concentrations for rucaparib, a blood sample was collected prior to the dosing of rucaparib on days 5, 9, 11, 15, and 19–23.
Other PK parameters, calculated for the probe drugs, included half-life (t1/2), tmax, apparent total clearance of drug after oral administration (CL/F), and apparent volume of distribution during terminal phase (VZ/F). The PK parameter calculated for rucaparib at steady state was trough plasma concentration (Cmin). PK parameters were calculated by noncompartmental analysis using Phoenix WinNonlin, version 8.1 (Certara, Princeton, NJ).

[2] = Safety: TEAEs, Arm B (rucaparib + oral contraceptives)
Procedure: (§1) Safety was assessed separately during the 3 treatment periods: before rucaparib dosing (day 1 to 5), rucaparib dosing alone (day 6 to 18), and rucaparib with and after probe drug (day 19 to 23). Safety and tolerability assessments were made based on adverse events (AEs), clinical laboratory results, vital signs, 12-lead electrocardiogram (ECG) measurements, body weight, physical examination, concomitant medication/procedures, and ECOG performance status. AEs were classified according to the Medical Dictionary for Regulatory Activities (MedDRA) classification system version 22.1 [17] and graded according to the Common Terminology Criteria for Adverse Events (CTCAE) version 4.03 [18].

[3] = tested on: CYP3A4; parameters: method as in PMID 32129697; settings: human hepatocytes; cited from earlier work
[4] = tested on: CYP3A; parameters: method as in PMID 30427584; settings: patients with an advanced solid tumor; cited from earlier work
[5] = parameters: method as in PMID 29799676; settings: all dosages 40–500 mg QD or 240–840 mg BID; cited from earlier work
[6] = tested on: breast cancer resistance protein (BCRP); parameters: method as in PMID 32129697; settings: read-out: 50% inhibitory concentration (IC50) for BCRP; transfected cells; cited from earlier work
[7] = tested on: CYP3As; parameters: method as in PMID 32129697; settings: human liver microsomes, reversible inhibition; cited from earlier work
[8] = Safety: TEAEs, Arm A (rucaparib + rosuvastatin); type: in vivo, human
Procedure: as §1

## CNCc1ccc(-c2[nH]c3cc(F)cc4c3c2CCNC4=O)cc1 [rucaparib]
[1]
  days of continuous rucaparib dosing to steady state: 4 days
[2]; Arm B, maximum severity 1
  Pharyngitis bacterial: 1 (5.6) n (%)
[2]; female, human, in vivo
  patients who experienced at least 1 TEAE: 50.0%
  patients with TEAEs considered related to rucaparib: 7 patients
[2]; human, in vivo
  Abdominal discomfort: 1 (5.6) n (%)
  Abdominal pain: 1 (5.6) n (%)
  Accident: 1 (5.6) n (%)
  Acute kidney injury: 1 (5.6) n (%)
  Apathy: 1 (5.6) n (%)
  Arthropod bite: 1 (5.6) n (%)
  Ascites: 1 (5.6) n (%)
  Aspartate aminotransferase increased: 1 (5.6) n (%)
  Cerebrovascular accident: 0 n (%)
  Diarrhea: 0 n (%)
  Dysgeusia: 2 (11.1) n (%)
  Erythema: 0 n (%)
  General disorders and administration site conditions: 1 (5.6) n (%)
  Headache: 1 (5.6) n (%)
  Infections and infestations: 1 (5.6) n (%)
  Injury, poisoning, and procedural complications: 1 (5.6) n (%)
  Musculoskeletal and connective tissue disorders: 1 (5.6) n (%)
  Musculoskeletal pain: 1 (5.6) n (%)
  Nausea: 1 (5.6) n (%)
  Onycholysis: 1 (5.6) n (%)
  Peripheral swelling: 1 (5.6) n (%)
  Psychiatric disorders: 1 (5.6) n (%)
  Renal and urinary disorders: 1 (5.6) n (%)
  Skin and subcutaneous tissue disorders: 1 (5.6) n (%)
  Skin hemorrhage: 1 (5.6) n (%)
  Somnolence: 1 (5.6) n (%)
  Taste disorder: 1 (5.6) n (%)
  Thrombocytopenia: 0 n (%)
[3]
  CYP3A4 mRNA expression: down-regulated
  CYP3A activities: reduced
[4]
  inhibition of CYP3A at steady state: weakly inhibited
[5]
  steady state of plasma rucaparib PK achieved by day: ≤ 8 days
[6]
  pIC50: 4.26
[7]
  pIC50: 4.64 to 4.76
[8]; maximum severity 1
  Abdominal distension: 1 (5.9) n (%)
  Abdominal pain: 1 (5.9) n (%)
  Blood creatinine increased: 1 (5.9) n (%)
  Diarrhea: 2 (11.8) n (%)
  Dyspepsia: 1 (5.9) n (%)
  Electrocardiogram QT prolonged: 1 (5.9) n (%)
  Gastrointestinal disorders: 3 (17.6) n (%)
  General disorders and administration site conditions: 1 (5.9) n (%)
  Infections and infestations: 1 (5.9) n (%)
  Investigations: 2 (11.8) n (%)
  Nasopharyngitis: 1 (5.9) n (%)
  Peripheral swelling: 1 (5.9) n (%)
  Reproductive system and breast disorders: 0 n (%)
  Total patients with events: 5 (29.4) n (%)
  Vaginal hemorrhage: 0 n (%)
  Vomiting: 0 n (%)
[8]; maximum severity 2
  Abdominal pain: 1 (5.9) n (%)
  Abdominal pain upper: 1 (5.9) n (%)
  Body temperature increased: 0 n (%)
  Cardiac disorders: 1 (5.9) n (%)
  Diarrhea: 1 (5.9) n (%)
  Dyspepsia: 0 n (%)
  Electrocardiogram QT prolonged: 0 n (%)
  Gastrointestinal disorders: 3 (17.6) n (%)
  General disorders and administration site conditions: 2 (11.8) n (%)
  Infections and infestations: 1 (5.9) n (%)
  Investigations: 0 n (%)
  Noncardiac chest pain: 1 (5.9) n (%)
  Peripheral swelling: 1 (5.9) n (%)
  Sinus tachycardia: 1 (5.9) n (%)
  Total patients with events: 5 (29.4) n (%)
  Urinary tract infection: 1 (5.9) n (%)
  Vomiting: 1 (5.9) n (%)
[8]; maximum severity 3
  Deep vein thrombosis: 1 (5.9) n (%)
  Total patients with events: 1 (5.9) n (%)
  Vascular disorders: 1 (5.9) n (%)
[8]; maximum severity 4
  Pulmonary embolism: 1 (5.9) n (%)
  Respiratory, thoracic, and mediastinal disorders: 1 (5.9) n (%)
  Total patients with events: 1 (5.9) n (%)
[8]; rucaparib alone day 5 to 19, of 10 patients with TEAE
  TEAEs considered related to rucaparib by the investigator: 3
